Experimental data published in ChEMBL document CHEMBL1159352, “Reaction of irofulven with zinc and acid” (J Nat Prod, 2003).

Test system: HL-60
Assay: Cytotoxicity against human HL60 cells after 48 hrs by trypan blue exclusion assay
Assay type: functional, cell-based
Conditions: HL-60, 48 h

C=C1C(C)=Cc2c(O)c(C)c(CCOC(C)=O)c(C)c21
IC50: 110 µM

CC1=C(CO)c2c(C)c(CCO)c(C)c(O)c2C1
IC50: 120 µM

C=C1C(C)=Cc2c(O)c(C)c(CCO)c(C)c21
IC50: 130 µM

CC1=C(CO)c2c(C)c(CCO)c(C)c(O)c2C1O (stereo not given)
IC50: 114 µM

CC1=C2C(=C[C@@](C)(CO)[C@@H]2O)C(=O)[C@](C)(O)C12CC2 [ILLUDIN]
IC50: 0.003 µM
